Measurements as given in patent US12662491B2 (Redona Therapeutics, Inc., priority 2020, dated 2026).

The compounds below were run against T1, Zcchc11 enzyme (Homo sapiens, UniProt Q5TAX3) (assay: TUTase assay (Zcchc11 assay, Lin28a-dependent polyuridylation of pre-let-7)). Settings: LIN28A 10 nM, Zcchc11 0.2 nM, 5′-fluorescein pre-let-7 miRNA 2 nM, UTP 5 uM, room temperature, 30 minutes pre-incubation; read-out: Potency Lin28a-dep Z11 IC50.
T1 construct: made in house; host or cells: HEK293 cells (Zcchc11); E. coli Rosetta II (LIN28A)
T1 sequence (Q5TAX3 212-1420): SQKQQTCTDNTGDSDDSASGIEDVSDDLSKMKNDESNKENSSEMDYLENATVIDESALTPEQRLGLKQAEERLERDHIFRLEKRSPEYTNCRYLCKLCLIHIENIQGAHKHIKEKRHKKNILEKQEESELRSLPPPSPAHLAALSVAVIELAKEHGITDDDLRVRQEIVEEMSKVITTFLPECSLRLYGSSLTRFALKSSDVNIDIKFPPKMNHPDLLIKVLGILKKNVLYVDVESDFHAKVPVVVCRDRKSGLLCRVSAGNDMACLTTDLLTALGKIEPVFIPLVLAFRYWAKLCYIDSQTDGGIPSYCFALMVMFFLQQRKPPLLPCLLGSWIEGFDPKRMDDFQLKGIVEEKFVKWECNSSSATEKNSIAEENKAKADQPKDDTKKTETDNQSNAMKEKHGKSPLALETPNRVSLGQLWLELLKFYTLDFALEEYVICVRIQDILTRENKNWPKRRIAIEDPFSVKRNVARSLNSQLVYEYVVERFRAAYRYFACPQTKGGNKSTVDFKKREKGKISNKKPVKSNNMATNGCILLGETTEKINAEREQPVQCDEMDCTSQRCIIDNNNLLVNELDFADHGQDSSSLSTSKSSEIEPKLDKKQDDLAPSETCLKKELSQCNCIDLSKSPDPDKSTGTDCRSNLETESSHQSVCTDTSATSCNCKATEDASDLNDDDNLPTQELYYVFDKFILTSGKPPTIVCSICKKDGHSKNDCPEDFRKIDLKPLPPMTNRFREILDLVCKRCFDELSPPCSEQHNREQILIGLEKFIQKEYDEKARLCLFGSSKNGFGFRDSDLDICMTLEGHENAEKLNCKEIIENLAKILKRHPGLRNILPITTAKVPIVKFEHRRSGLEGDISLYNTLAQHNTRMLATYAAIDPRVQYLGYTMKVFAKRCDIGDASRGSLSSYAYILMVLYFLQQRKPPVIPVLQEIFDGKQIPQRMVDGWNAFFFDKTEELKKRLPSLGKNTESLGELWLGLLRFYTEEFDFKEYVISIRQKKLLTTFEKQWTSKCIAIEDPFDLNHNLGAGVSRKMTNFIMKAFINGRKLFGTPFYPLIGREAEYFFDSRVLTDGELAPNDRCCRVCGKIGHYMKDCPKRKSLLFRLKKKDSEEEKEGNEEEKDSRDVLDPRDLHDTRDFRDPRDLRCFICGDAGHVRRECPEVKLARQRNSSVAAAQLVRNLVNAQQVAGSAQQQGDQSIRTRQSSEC
Type: biochemical
Outline: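 Polyuridylation measured as fluorescein loss when a rhodamine-labelled A20 probe anneals to U-tails added to fluorescein pre-let-7 (2 nM). Reaction: truncated Zcchc11 0.2 nM, E. coli-made LIN28A 10 nM, UTP 5 uM, HEPES pH 7.3, room temperature. Initial rates fitted to four-parameter IC50.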
An IC50 of over 50 µM was found for `Cc1c(F)c(N2CCC[C@@H]2COc2ccccn2)cc2c1c(=O)c(C(=O)O)cn2C1CC1` [Example 1, (R)-1-cyclopropyl-6-fluoro-5-methyl-4-oxo-7-(2-((pyridin-2-yloxy)methyl)pyrrolidin-1-yl)-1,4-dihydroquinoline-3-carboxylic acid] in this work.
An IC50 of 1 to 10 µM was found for `O=C(O)c1cn(-c2ncccn2)c2cc(N3CCC[C@@H]3COc3ccccn3)c(Cl)cc2c1=O` [Example 2, (R)-6-chloro-4-oxo-7-(2-((pyridin-2-yloxy)methyl)pyrrolidin-1-yl)-1-(pyrimidin-2-yl)-1,4-dihydroquinoline-3-carboxylic acid] in this work.

Same assay, conditions: Lin28a-dependent Zcchc11 (Z11) TUTase activity; read-out: Potency Lin28a-dep Z11 IC50
An IC50 of at most 1 µM was found for `CN(C)C1CN(c2ccc(-n3cc(C(=O)O)c(=O)c4cc(Cl)c(N5CC(c6ncccn6)C[C@@H]5COc5ncccc5Cl)cc43)cn2)C1` (stereo partly drawn) [Compound 346, 6-chloro-7-((2R)-2-(((3-chloropyridin-2-yl)oxy)methyl)-4-(pyrimidin-2-yl)pyrrolidin-1-yl)-1-(6-(3-(dimethyl-amino)azetidin-1-yl)pyridin-3-yl)-4-oxo-1,4-dihydro-quinoline-3-carboxylic acid] in this work.
An IC50 of at most 1 µM was found for `CN(C)C1CN(c2ccc(-n3cc(C(=O)O)c(=O)c4cc(Cl)c(N5CC6(CC6)C[C@@H]5COc5ncccc5Cl)cc43)cn2)C1` [Compound 347, (R)-6-chloro-7-(6-(((3-chloropyridin-2-yl)oxy)methyl)-5-azaspiro[2.4]heptan-5-yl)-1-(6-(3-(dimethyl-amino)azetidin-1-yl)pyridin-3-yl)-4-oxo-1,4-dihydro-quinoline-3-carboxylic acid] in this work.
An IC50 of at most 1 µM was found for `COc1ccc(Cl)c(OC[C@H]2C[C@H](c3cccnc3)CN2c2cc3c(cc2Cl)c(=O)c(C(=O)O)cn3-c2ccc(N3CC(N(C)C)C3)nc2)n1` [Compound 348, 6-chloro-7-((2R,4R)-2-(((3-chloro-6-methoxy-pyridin-2-yl)oxy)methyl)-4-(pyridin-3-yl)pyrrolidin-1-yl)-1-(6-(3-(dimethyl-amino)azetidin-1-yl)pyridin-3-yl)-4-oxo-1,4-dihydro-quinoline-3-carboxylic acid] in this work.
An IC50 of at most 1 µM was found for `CN(C)C1CN(c2ccc(-n3cc(C(=O)O)c(=O)c4cc(Cl)c(N5CC(C6CC6)C[C@@H]5COc5ncccc5Cl)cc43)cn2)C1` (stereo partly drawn) [Compound 349, 6-chloro-7-((2R)-2-(((3-chloropyridin-2-yl)oxy)methyl)-4-cyclopropyl-pyrrolidin-1-yl)-1-(6-(3-(dimethyl-amino)azetidin-1-yl)pyridin-3-yl)-4-oxo-1,4-dihydro-quinoline-3-carboxylic acid] in this work.
An IC50 of at most 1 µM was found for `CN(C)c1ccc(Cl)c(OC[C@H]2CCCN2c2cc3c(cc2Cl)c(=O)c(C(=O)O)cn3-c2ccc(N3CC(N(C)C)C3)nc2)n1` [Compound 350, (R)-6-chloro-7-(2-(((3-chloro-6-(dimethyl-amino)pyridin-2-yl)oxy)methyl)pyrrolidin-1-yl)-1-(6-(3-(dimethyl-amino)azetidin-1-yl)pyridin-3-yl)-4-oxo-1,4-dihydro-quinoline-3-carboxylic acid] in this work.
An IC50 of at most 1 µM was found for `CN(C)C1CN(c2ccc(-n3cc(C(=O)O)c(=O)c4cc(Cl)c(N5CCC(C)(C)[C@@H]5COc5ncccc5Cl)cc43)cn2)C1` [Compound 351, (R)-6-chloro-7-(2-(((3-chloropyridin-2-yl)oxy)methyl)-3,3-dimethyl-pyrrolidin-1-yl)-1-(6-(3-(dimethyl-amino)azetidin-1-yl)pyridin-3-yl)-4-oxo-1,4-dihydro-quinoline-3-carboxylic acid] in this work.
An IC50 of at most 1 µM was found for `COc1ccc(Cl)c(OC[C@H]2CC(c3cn[nH]c3)CN2c2cc3c(cc2F)c(=O)c(C(=O)O)cn3-c2ccc(N3CC(N(C)C)C3)nc2)n1` (stereo partly drawn) [Compound 352, 7-((2R)-2-(((3-chloro-6-methoxy-pyridin-2-yl)oxy)methyl)-4-(1H-pyrazol-4-yl)pyrrolidin-1-yl)-1-(6-(3-(dimethyl-amino)azetidin-1-yl)pyridin-3-yl)-6-fluoro-4-oxo-1,4-dihydro-quinoline-3-carboxylic acid compound with formic acid (1:1)] in this work.
